Experimental data from patent US20240299376A1, “METHOD OF TREATING A CONDITION USING A […] EFFECTIVE DOSE OF 1-(1-OXO-1,2-DIHYDROISOQUINOLIN-5-YL)-5-(TRIFLUOROMETHYL)-N-(2-(TRIFLUOROMETHYL)PYRIDIN-4-YL)-1H-PYRAZOLE-4-CARBOXAMIDE” (Janssen Pharmaceutica NV, priority 2021, published 2024).
Read-outs that look alike come from different tables or passages of the source.

Test: Preliminary food effect assessment at steady state
Format: in vivo, human
Description: Preliminary food effect was assessed in 8 subjects at steady state: 2 subjects at 100 mg (2×50 mg), 1 subject at 400 mg (2×200 mg), 1 subject at 200 mg (4×50 mg) and 4 subjects at 300 mg (3×100 mg). In the fasting condition, JNJ-67856633 was administered after overnight fasting for at least 8 hours. In the fed condition, following an overnight fast of at least 8 hours, the subjects were given a high-fat meal 30 minutes before drug intake. In both conditions, no food was allowed for at least 4 hours after study drug intake. Individual plasma concentrations of JNJ-67856633 under fasting and fed conditions using 50 mg or 200 mg capsules are shown in Table 16.

`O=C(Nc1ccnc(C(F)(F)F)c1)c1cnn(-c2cccc3c(=O)[nH]ccc23)c1C(F)(F)F` [Compound A, 1-(1-oxo-1,2-dihydroisoquinolin-5-yl)-5-(trifluoromethyl)-N-[2-(trifluoromethyl)pyridin-4-yl]-1H-pyrazole-4-carboxamide] showed a Cmax (2 × 50 mg, fasted condition, steady state, individual values, N = 2, listed as JNJ-67856633) of 18200 ng/mL, a Cmax (2 × 50 mg, fed condition (high-fat meal), steady state, individual values, N = 2, listed as JNJ-67856633) of 18400 ng/mL and an AUCτ (2 × 50 mg, fed condition, steady state, individual values, N = 2, listed as JNJ-67856633) of 421 µg·h/mL. The “steady state exposure (Cmax and AUCτ) fasting vs fed” value (8 subjects at steady state) was “comparable”, the AUC (human, plasma, oral, 100 mg, 2 × 50 mg, fasted condition, steady state, N = 2) was 313 µg·h/mL and the Cmax (human, plasma, oral, 100 mg, 2 × 50 mg, fasted condition, steady state, individual values, N = 2, read-out: Cmax) was 15300 ng/mL. It also gave a Tmax (human, plasma, oral, 100 mg, 2 × 50 mg, fasted condition, steady state, individual values, N = 2, read-out: Tmax) of 2 h, a Cmax (human, plasma, oral, 100 mg, 2 × 50 mg, fed condition (high-fat meal), steady state, individual values, N = 2, read-out: Cmax) of 13400 ng/mL and an AUC (human, plasma, oral, 100 mg, 2 × 50 mg, fed condition, steady state, individual values, N = 2) of 304 µg·h/mL. For the same compound, the Tmax (human, plasma, oral, 100 mg, 2 × 50 mg, fed condition, steady state, individual values, N = 2, read-out: Tmax) was 6 h, the AUC (human, plasma, oral, 200 mg, 4 × 50 mg, fasted condition, steady state, N = 1) was 958 µg·h/mL and the Cmax (human, plasma, oral, 200 mg, 4 × 50 mg, fasted condition, steady state, N = 1, read-out: Cmax) was 47500 ng/mL. The Tmax (human, plasma, oral, 200 mg, 4 × 50 mg, fasted condition, steady state, N = 1, read-out: Tmax) was 1 h, the AUC (human, plasma, oral, 200 mg, 4 × 50 mg, fed condition, steady state, N = 1) was 1010 µg·h/mL and the Cmax (human, plasma, oral, 200 mg, 4 × 50 mg, fed condition, steady state, N = 1, read-out: Cmax) was 48400 ng/mL. It also gave a Tmax (human, plasma, oral, 200 mg, 4 × 50 mg, fed condition, steady state, N = 1, read-out: Tmax) of 24 h, an AUC (human, plasma, oral, 400 mg, 2 × 200 mg, fasted condition, steady state, N = 1) of 1100 µg·h/mL and a Cmax (human, plasma, oral, 400 mg, 2 × 200 mg, fasted condition, steady state, N = 1, read-out: Cmax) of 61100 ng/mL. It also gave an AUC (human, plasma, oral, 400 mg, 2 × 200 mg, fed condition, steady state, N = 1) of 1320 µg·h/mL, a Cmax (human, plasma, oral, 400 mg, 2 × 200 mg, fed condition, steady state, N = 1, read-out: Cmax) of 64000 ng/mL and a Tmax (human, plasma, oral, fasting conditions, 8 subjects at steady state, read-out: Tmax range) of 0 to 4 h. For the same compound, the Tmax (human, plasma, oral, fed conditions, 8 subjects at steady state, read-out: Tmax range) was 0.5 to 24 h.
